The record followed here is patent publication US7671065B2, “Pyridine derivatives as potassium ion channel openers” (Janssen Pharmaceutica N.V., priority 2005, dated 2010).

SMILES strings stand for the structures.

Broadly, the EC50 is the concentration needed to bring the measured effect to its halfway point.

The target in this assay is T1, KATP channels (Homo sapiens, UniProt O60706+Q14654).
T1 construct: TE671 human medulloblastoma cells were obtained from ATCC; host or cells: TE671 human medulloblastoma cells
T1 sequence (Q14654 whole entry): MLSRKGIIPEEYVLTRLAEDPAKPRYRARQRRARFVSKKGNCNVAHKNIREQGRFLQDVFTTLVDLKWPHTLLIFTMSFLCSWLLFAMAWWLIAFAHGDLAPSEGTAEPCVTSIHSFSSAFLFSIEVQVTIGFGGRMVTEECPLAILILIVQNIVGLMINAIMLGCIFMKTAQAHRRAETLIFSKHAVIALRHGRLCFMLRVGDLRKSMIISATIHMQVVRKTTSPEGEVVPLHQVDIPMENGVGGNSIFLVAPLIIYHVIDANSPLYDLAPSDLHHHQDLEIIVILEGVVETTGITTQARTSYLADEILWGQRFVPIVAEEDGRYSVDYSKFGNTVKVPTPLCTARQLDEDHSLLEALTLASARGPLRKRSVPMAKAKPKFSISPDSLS
T1 sequence (O60706 1-1549 isoform O60706-2): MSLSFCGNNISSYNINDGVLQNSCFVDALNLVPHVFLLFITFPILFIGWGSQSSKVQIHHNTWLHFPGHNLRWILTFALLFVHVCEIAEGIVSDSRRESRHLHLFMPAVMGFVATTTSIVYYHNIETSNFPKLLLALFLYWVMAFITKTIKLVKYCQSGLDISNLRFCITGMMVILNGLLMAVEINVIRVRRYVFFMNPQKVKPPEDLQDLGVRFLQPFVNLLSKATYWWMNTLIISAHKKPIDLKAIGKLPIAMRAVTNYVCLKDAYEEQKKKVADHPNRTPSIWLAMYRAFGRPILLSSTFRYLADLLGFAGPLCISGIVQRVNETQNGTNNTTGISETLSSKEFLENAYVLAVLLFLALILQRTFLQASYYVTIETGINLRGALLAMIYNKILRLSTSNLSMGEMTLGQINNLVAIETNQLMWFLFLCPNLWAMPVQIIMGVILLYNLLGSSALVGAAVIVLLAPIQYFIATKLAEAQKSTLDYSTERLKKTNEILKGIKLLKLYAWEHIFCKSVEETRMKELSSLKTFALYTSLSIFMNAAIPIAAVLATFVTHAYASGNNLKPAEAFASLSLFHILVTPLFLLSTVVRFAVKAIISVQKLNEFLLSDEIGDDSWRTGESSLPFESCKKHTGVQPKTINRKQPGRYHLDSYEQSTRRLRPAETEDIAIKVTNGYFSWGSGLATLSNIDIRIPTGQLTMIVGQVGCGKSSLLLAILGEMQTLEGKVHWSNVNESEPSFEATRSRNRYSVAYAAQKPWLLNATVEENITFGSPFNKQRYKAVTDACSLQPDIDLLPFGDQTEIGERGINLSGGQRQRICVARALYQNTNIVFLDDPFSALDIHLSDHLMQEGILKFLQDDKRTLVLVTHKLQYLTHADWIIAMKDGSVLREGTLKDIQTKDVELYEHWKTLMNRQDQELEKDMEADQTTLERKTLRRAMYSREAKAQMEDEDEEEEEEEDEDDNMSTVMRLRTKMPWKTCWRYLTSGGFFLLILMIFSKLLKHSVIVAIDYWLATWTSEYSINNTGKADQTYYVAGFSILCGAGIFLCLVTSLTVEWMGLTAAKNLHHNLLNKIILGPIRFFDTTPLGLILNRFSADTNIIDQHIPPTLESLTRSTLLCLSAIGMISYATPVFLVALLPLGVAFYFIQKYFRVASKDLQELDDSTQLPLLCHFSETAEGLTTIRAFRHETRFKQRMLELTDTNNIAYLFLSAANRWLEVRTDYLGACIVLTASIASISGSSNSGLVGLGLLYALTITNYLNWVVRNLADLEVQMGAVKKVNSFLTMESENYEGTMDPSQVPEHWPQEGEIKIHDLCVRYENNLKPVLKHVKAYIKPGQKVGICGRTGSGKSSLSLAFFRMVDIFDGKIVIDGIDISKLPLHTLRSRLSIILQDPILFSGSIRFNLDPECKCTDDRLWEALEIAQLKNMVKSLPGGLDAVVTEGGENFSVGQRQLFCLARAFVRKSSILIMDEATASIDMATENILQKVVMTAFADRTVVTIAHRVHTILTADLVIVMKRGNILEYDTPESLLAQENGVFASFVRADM
Description: Potassium Channel Assay (FLIPR membrane potential dye, TE671 cells). As to conditions: TE671 human medulloblastoma cells, room temperature, fluorescence change monitored for 3 minutes. The format is cell-based. How it is done: TE671 human medulloblastoma cells were obtained from ATCC and grown in Dulbecco's modified Eagle's medium (DMEM) supplemented with 10% fetal bovine serum, 100 U/ml penicillin and 100 U/ml streptomycine.
The day before testing, the cells were plated in black 96-well plates at 50K/well. On the day of testing, the growth media was removed, then 100 μl of FLIPR buffer (20 mM HEPES, 120 mM NaCl, 2 mM KCl, 2 mM CaCl2, 1 mM MgCl2, 5 mM Glucose) and 100 μl of Membrane Potential Assay Dye (Molecular Devices) dissolved in FLIPR buffer were added to each well. The cells were incubated at room temperature for 15 to 30 min.
The effect of test compounds on KATP channels were evaluated on a fluorometric imaging plate reader (FLIPR, Molecular Devices) at room temperature. After a baseline period, 50 μl of 5× stock solution of test compound prepared in FLIPR buffer was added and fluorescence change was monitored for 3 minutes. After this reading, glyburide, a KATP channel blocker, was added to a final concentration of 5 μM to check the specificity of the test compound as a KATP channel opener. Hyperpolarization resulting from KATP channel opening was observed as a decrease in fluorescence intensity.
Representative compounds of the present invention were tested according to the procedure described above, with results as listed in Table 7 below.
In turn, `CC(O)c1cnccc1C(=O)c1ccccc1` (stereo not drawn) [Compound 59, [3-(1-Hydroxy-ethyl)-pyridin-4-yl]-phenyl-methanone] registered an EC50 of 26.8 µM.

Compound `COc1ccc(C(O)c2cnccc2C(=O)c2ccccc2)cc1F` (stereo not drawn) [Compound 45, {3-[(3-Fluoro-4-methoxy-phenyl)-hydroxy-methyl]-pyridin-4-yl}-phenyl-methanone] registered an EC50 of 11.6 µM. Compared with the last compound, the EC50 is about 2.3-fold lower. As for `N#Cc1cccc(C(O)c2ccncc2CO)c1` (stereo not drawn) [Compound 57, 3-[Hydroxy-(3-hydroxymethyl-pyridin-4-yl)-methyl]-benzonitrile], the “% Stimulation” value came out at 16% and the EC50 was greater than 30 µM. In turn, `N#Cc1cccc(-c2ccncc2C(O)c2cccc(F)c2)c1` (stereo not drawn) [Compound 21, 3-{3-[(3-Fluoro-phenyl)-hydroxy-methyl]-pyridin-4-yl}-benzonitrile] yielded an EC50 of 23.2 µM. In other words, the double-digit micromolar range.

In the case of `COc1ccc(C=O)cc1-c1ccncc1C=O` [Compound 53, 4-(5-Formyl-2-methoxy-phenyl)-pyridine-3-carbaldehyde], the “% Stimulation” value worked out at 30% and the half-maximal effective concentration (EC50) is greater than 30 µM.

In the case of `CCOC(=O)c1cnc2cc(C(F)(F)F)ccc2c1-c1ccc(-c2ccccc2)cc1` [Compound 5, 4-Biphenyl-4-yl-7-trifluoromethyl-quinoline-3-carboxylic acid ethyl ester], the “% Stimulation” value was 33% and the half-maximal effective concentration (EC50) is greater than 30 µM.

Regarding `OCc1cnccc1C(O)c1ccccc1` (stereo not drawn) [Compound 56, (3-Hydroxymethyl-pyridin-4-yl)-phenyl-methanol], the “% Stimulation” value is 33% and the EC50 is greater than 30 µM.

The compound `CSc1ccc(C(O)c2cnccc2-c2cccc(C#N)c2)cc1` (stereo not drawn) [Compound 34, 3-{3-[Hydroxy-(4-methylsulfanyl-phenyl)-methyl]-pyridin-4-yl}-benzonitrile] returned an EC50 of 20.8 µM. Consider `CCOC(=O)c1cnc2cc(C(F)(F)F)ccc2c1-c1cc(C(F)(F)F)ccc1F` [Compound 8, 4-(2-Fluoro-5-trifluoromethyl-phenyl)-7-trifluoromethyl-quinoline-3-carboxylic acid ethyl ester], for which the “% Stimulation” value was 31% and the EC50 is greater than 30 µM. In the case of `CC(C)C(O)c1cnccc1Br` (stereo not drawn) [Compound 63, 1-(4-Bromo-pyridin-3-yl)-2-methyl-propan-1-ol], the 50% effective concentration (EC50) is 7.97 µM. For `COc1ccc(CO)cc1-c1ccncc1CO` [Compound 58], the “% Stimulation” value is on record as 14% and the concentration for a half-maximal effect (EC50) was greater than 30 µM.

Turning to `CCOC(=O)c1cnc2cc(C(F)(F)F)ccc2c1-c1ccccc1` [Compound 6, 4-Phenyl-7-trifluoromethyl-quinoline-3-carboxylic acid ethyl ester], the “% Stimulation” value amounted to 42% and the EC50 was greater than 30 µM. On to `Cc1ccc(C(O)c2cnccc2-c2cccc(C#N)c2)cc1` (stereo not drawn) [Compound 32, 3-{3-[Hydroxy-(4-methyl-phenyl)-methyl]-pyridin-4-yl}-benzonitrile], for which it took 8.48 µM to reach a half-maximal effect (EC50). Turning to `N#Cc1cccc(-c2ccncc2C(O)c2ccc(Cl)c(Cl)c2)c1` (stereo not drawn) [Compound 24, 3-{3-[(3,4-Dichloro-phenyl)-hydroxy-methyl]-pyridin-4-yl}-benzonitrile], the response was half-maximal at 14.5 µM (EC50). As for `CCOC(=O)c1ccc(-c2c(C(=O)OCC)cnc3cc(C(F)(F)F)ccc23)cc1` [Compound 4, 4-(4-Ethoxycarbonyl-phenyl)-7-trifluoromethyl-quinoline-3-carboxylic acid ethyl ester], the “% Stimulation” value was determined as 38% and the EC50 was greater than 30 µM. `CCOC(=O)c1cnc2cc(C(F)(F)F)ccc2c1-c1cccc(CO)c1` [Compound 12, 4-(3-Hydroxymethyl-phenyl)-7-trifluoromethyl-quinoline-3-carboxylic acid ethyl ester]: the “% Stimulation” value was 20% and the EC50 was greater than 30 µM. `N#Cc1cccc(-c2ccncc2C(O)c2ccccc2)c1` (stereo not drawn) [Compound 19, 3-[3-(Hydroxy-phenyl-methyl)-pyridin-4-yl]-benzonitrile] came in with an EC50 of 9.63 µM. `Cc1ccc(F)cc1C(O)c1cnccc1-c1cccc(C#N)c1` (stereo not drawn) [Compound 38, 3-{3-[(5-Fluoro-2-methyl-phenyl)-hydroxy-methyl]-pyridin-4-yl}-benzonitrile]: the “% Stimulation” value came out at 63% and the EC50 is greater than 30 µM. `CN(C)c1ccc(C(O)c2cnccc2C(=O)c2ccccc2)cc1` (stereo not drawn) [Compound 44, {3-[(4-Dimethylamino-phenyl)-hydroxy-methyl]-pyridin-4-yl}-phenyl-methanone] yielded a concentration giving a half-maximal response (EC50) of 17.4 µM.

As for `CCOC(=O)c1cnc2cc(C(F)(F)F)ccc2c1OS(=O)(=O)C(F)(F)F` [Compound 15, 4-Trifluoromethanesulfonyloxy-7-trifluoromethyl-quinoline-3-carboxylic acid ethyl ester], the EC50 was 6.27 µM. Regarding `CCOC(=O)c1cnc2cc(C(F)(F)F)ccc2c1-c1cccc(C#N)c1` [Compound 1, 4-(3-Cyano-phenyl)-7-trifluoromethyl-quinoline-3-carboxylic acid ethyl ester], the “% Stimulation” value stood at 36% and the EC50 is greater than 30 µM.

Regarding `O=C(c1ccccc1)c1ccncc1C(O)c1cccc(F)c1` (stereo not drawn) [Compound 47, {3-[(3-Fluoro-phenyl)-hydroxy-methyl]-pyridin-4-yl}-phenyl-methanone], the EC50 is 5.09 µM. As to `N#Cc1cccc(C(=O)c2ccncc2C(O)c2ccccc2)c1` (stereo not drawn) [Compound 48, 3-[3-(Hydroxy-phenyl-methyl)-pyridine-4-carbonyl]-benzonitrile], the EC50 is 14.3 µM. Consider `N#Cc1cccc(-c2ccncc2C=O)c1` [Compound 51, 3-(3-Formyl-pyridin-4-yl)-benzonitrile], for which the “% Stimulation” value was 48% and the 50% effective concentration (EC50) was greater than 30 µM. On to `N#Cc1cccc(-c2ccncc2C(O)c2ccc(Cl)cc2)c1` (stereo not drawn) [Compound 26, 3-{3-[(4-Chloro-phenyl)-hydroxy-methyl]-pyridin-4-yl}-benzonitrile], for which a half-maximal response (EC50) required 10.2 µM. In turn, `CC(C)(C)c1ccc(C(O)c2cnccc2-c2cccc(C#N)c2)cc1` (stereo not drawn) [Compound 27, 3-{3-[(4-tert-Butyl-phenyl)-hydroxy-methyl]-pyridin-4-yl}-benzonitrile] came in with an EC50 of 10.7 µM. `N#Cc1cccc(-c2ccncc2C(O)c2ccc(F)cc2)c1` (stereo not drawn) [Compound 20, 3-{3-[(4-Fluoro-phenyl)-hydroxy-methyl]-pyridin-4-yl}-benzonitrile] registered an EC50 of 19.4 µM.

`N#Cc1cccc(-c2ccncc2CO)c1` [Compound 50, 3-(3-Hydroxymethyl-pyridin-4-yl)-benzonitrile]: the “% Stimulation” value is reported as 19% and the EC50 was greater than 30 µM.

In turn, `COc1ccc(C(O)c2cnccc2-c2cccc(C#N)c2)cc1F` (stereo not drawn) [Compound 37, 3-{3-[(3-Fluoro-4-methoxy-phenyl)-hydroxy-methyl]-pyridin-4-yl}-benzonitrile] yielded an EC50 of 9.59 µM. That is a single-digit micromolar value. `COc1ccccc1C(O)c1cnccc1-c1cccc(C#N)c1` (stereo not drawn) [Compound 28, 3-{3-[Hydroxy-(2-methoxy-phenyl)-methyl]-pyridin-4-yl}-benzonitrile]: the EC50 turned out to be 10.2 µM. Compound `COc1cccc(C(O)c2cnccc2-c2cccc(C#N)c2)c1` (stereo not drawn) [Compound 29, 3-{3-[Hydroxy-(3-methoxy-phenyl)-methyl]-pyridin-4-yl}-benzonitrile] had an EC50 of 13.7 µM. Turning to `N#Cc1cccc(-c2ccncc2C(O)C(F)(F)F)c1` (stereo not drawn) [Compound 39, 3-[3-(2,2,2-Trifluoro-1-hydroxy-ethyl)-pyridin-4-yl]-benzonitrile], the EC50 turned out to be 10.5 µM. The compound `N#Cc1cccc(-c2ccncc2C(O)c2ccc(F)c(F)c2)c1` (stereo not drawn) [Compound 23, 3-{3-[(3,4-Difluoro-Phenyl)-hydroxy-methyl]-pyridin-4-yl}-benzonitrile] registered an EC50 of 11.4 µM. For `CCOC(=O)c1cnc2cc(C(F)(F)F)ccc2c1-c1cc(C(F)(F)F)cc(C(F)(F)F)c1` [Compound 3, 4-(3,5-Bis-trifluoromethyl-phenyl)-7-trifluoromethyl-quinoline-3-carboxylic acid ethyl ester], the “% Stimulation” value is listed as 19% and the half-maximal effective concentration (EC50) is greater than 30 µM. The compound `Cc1ccc(C(O)c2cnccc2-c2cccc(C#N)c2)cc1F` (stereo not drawn) [Compound 22, 3-{3-[(3-Fluoro-4-methyl-phenyl)-hydroxy-methyl]-pyridin-4-yl}-benzonitrile] displayed an EC50 of 15.1 µM. Compound `CC(O)c1cnccc1-c1cccc(C#N)c1` (stereo not drawn) [Compound 52, 3-[3-(1-Hydroxy-ethyl)-pyridin-4-yl]-benzonitrile] had an EC50 of 17.2 µM. In the case of `CCOC(=O)c1cnc2cc(C(F)(F)F)ccc2c1-c1cc(C)cc(OC)c1` [Compound 2, 4-(3-Methoxy-5-methyl-phenyl)-7-trifluoromethyl-quinoline-3-carboxylic acid ethyl ester], the “% Stimulation” value is given as 23% and the concentration for a half-maximal effect (EC50) is greater than 30 µM.

In turn, `CCOC(=O)c1cnc2cc(C(F)(F)F)ccc2c1-c1cc(CO)ccc1OC` [Compound 14, 4-(5-Hydroxymethyl-2-methoxy-phenyl)-7-trifluoromethyl-quinoline-3-carboxylic acid ethyl ester] returned a concentration giving a half-maximal response (EC50) of 4.56 µM. The compound `N#Cc1cccc(-c2ccncc2C(O)c2cc(Cl)cc(Cl)c2)c1` (stereo not drawn) [Compound 25, 3-{3-[(3,5-Dichloro-phenyl)-hydroxy-methyl]-pyridin-4-yl}benzonitrile] registered an EC50 of 9.82 µM.
